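96-well plates; 48 h exposure; 5 concentrations. Endpoints by linear interpolation between flanking doses. Not reached: highest tested concentration assigned. The concentration for 50% growth inhibition is given as GI50.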 Active and inactive are the calls of the source. Cut-off read from the data, not from the text of the source: active = GI50 up to about 1.1 µM and inactive = higher.
Assays:
Test in all cases: DTP human tumour cell line panel, 48 h
[1] = tested on: COLO 205
[2] = tested on: SW-620
[3] = tested on: MOLT-4
[4] = tested on: ACHN
[5] = tested on: NCI-H460
[6] = tested on: OVCAR-3
[7] = tested on: SNB-19
[8] = tested on: HCC 2998
[9] = tested on: HT-29
[10] = tested on: OVCAR-8
[11] = tested on: NCI-H23
[12] = tested on: UACC-257
[13] = tested on: SF-295
[14] = tested on: M14
[15] = tested on: A498

Measured: GI50

COc1ccc(CNc2nc3ccccc3nc2-c2cccs2)cc1OC
inactive: [1] 9.98 µM | [2] 93.3 µM | [3] 12.6 µM | [4] 23.1 µM | [5] 20.8 µM | [6] 51.3 µM | [7] > 100 µM | [8] 30.8 µM | [9] 46.2 µM | [10] 34 µM | [11] 25.2 µM | [12] 23.3 µM | [13] 42.4 µM

Cc1ccccc1NC(=O)C(=O)C(c1cnc2ccc([N+](=O)[O-])cc2n1)[N+](=O)[O-] (configuration not stated)
inactive: [1] > 100 µM | [2] > 100 µM | [3] 66.1 µM | [4] > 100 µM | [5] > 100 µM | [7] > 100 µM | [14] > 100 µM | [8] > 100 µM | [15] > 100 µM | [9] > 100 µM | [10] > 100 µM | [11] > 100 µM | [12] > 100 µM | [13] > 100 µM

Cn1c(N)c(-c2c3ccccc3nc3ccccc23)c(=O)n(C)c1=O
inactive: [1] > 100 µM | [2] > 100 µM | [3] > 100 µM | [6] > 100 µM | [14] > 100 µM | [15] > 100 µM | [9] > 100 µM | [10] > 100 µM | [11] > 100 µM | [13] > 100 µM

O=C(C#Cc1cnc(O)nc1O)c1ccccc1Cl
inactive: [1] 15.7 µM | [2] 14.2 µM | [3] 10.3 µM | [4] 17.3 µM | [5] 24.3 µM | [6] 14.2 µM | [7] 52.6 µM | [14] 15.5 µM | [8] 16.9 µM | [15] 17.9 µM | [9] 36.4 µM | [10] 15.2 µM | [11] 17.1 µM | [12] 14.7 µM | [13] > 100 µM

CS(=O)(=O)CSCSSCS(C)(=O)=O
inactive: [1] 18.2 µM | [2] 16.8 µM | [3] 25.5 µM | [4] 40 µM | [5] 26.2 µM | [6] 47.1 µM | [7] 74.3 µM | [14] 19.2 µM | [8] > 100 µM | [15] 88.9 µM | [9] > 59.7 µM | [10] 30.2 µM | [11] 35.5 µM | [12] 28.4 µM | [13] 18.2 µM

Cc1ccc(S(=O)(=O)n2cc(/C=C/C#N)c(/C=C/C#N)c2)cc1
inactive: [1] > 100 µM | [2] 40 µM | [3] 29.3 µM | [4] 72.8 µM | [5] > 100 µM | [6] 37.1 µM | [7] 57.9 µM | [14] 89.7 µM | [15] 50.5 µM | [9] > 100 µM | [10] > 100 µM | [11] 96.6 µM | [12] 82 µM | [13] 55.5 µM

O=C(C/C(CCC(=O)N(Cc1ccccc1)Cc1ccccc1)=N/Nc1ccc([N+](=O)[O-])cc1[N+](=O)[O-])c1ccccc1
inactive: [1] > 100 µM | [2] 45.2 µM | [3] 22.8 µM | [5] 92.9 µM | [6] > 100 µM | [7] > 100 µM | [14] 68.9 µM | [8] 74.5 µM | [9] 54.1 µM | [10] > 100 µM | [11] > 100 µM | [12] > 100 µM | [13] > 100 µM

O=C(CCc1nnc2s/c(=C\c3ccc([N+](=O)[O-])cc3)c(=O)n12)Nc1ccc(Cl)c(Cl)c1
inactive: [1] 28.1 µM | [2] 25.2 µM | [3] 25.1 µM | [4] 36.4 µM | [5] 46.1 µM | [6] 13.1 µM | [7] 72.9 µM | [14] 21.6 µM | [8] 22.3 µM | [15] 85.3 µM | [9] 30.3 µM | [10] 20.1 µM | [11] 25.8 µM | [12] 85.1 µM | [13] 25.1 µM

C#CCN(C)C(=O)N(CC#C)N=O
inactive: [1] > 100 µM | [2] > 100 µM | [3] > 100 µM | [4] > 100 µM | [5] > 100 µM | [6] > 100 µM | [7] > 100 µM | [14] > 100 µM | [15] > 100 µM | [9] > 100 µM | [10] > 100 µM | [11] > 100 µM | [12] > 100 µM | [13] > 100 µM

N#CC(/C(=N/NC(=O)C(=O)NN)C(=O)Nc1nc([N+](=O)[O-])cs1)c1ccc(Cl)cc1 (configuration not stated)
inactive: [1] > 100 µM | [2] > 100 µM | [3] > 100 µM | [4] > 100 µM | [5] > 100 µM | [6] > 100 µM | [7] > 100 µM | [14] > 100 µM | [8] > 100 µM | [9] > 100 µM | [10] > 100 µM | [11] > 100 µM | [12] > 100 µM | [13] > 100 µM

— ChEMBL document CHEMBL1201862, “PubChem BioAssay data set” (2004)
